Among the data in patent US20240398781A1, “SPIROCYCLIC CYCLIC MODULATORS OF CHOLESTEROL BIOSYNTHESIS AND THEIR USE FOR PROMOTING REMYELINATION” (GENENTECH, INC., priority 2021, published 2024) are EC50 and Ki values, retold here.

As usually defined, the EC50 is the concentration that produces a half-maximal response. What is called Ki is a dissociation constant, usually derived from enzyme kinetics or from competition with a known ligand. The low end stands for a stronger hold on the target, the high end for a looser hold on the target.

One assay concerns EpiSC-derived OPCs. Nature of the assay: In vitro phenotypic screening of OPCs (MBP staining, high-content imaging). It is filed as cell-based, mouse. Particulars: percentage of MBP+ oligodendrocytes, 3 days, 0.5 nM to 1000 nM, read-out: OPC EC50. As to the method:
To assess effects of treatments on OPCs, all treatments were assayed in two or more independent platings of epiblast stem cell-derived OPCs (EpiSC). EpiSC-derived OPCs were obtained using in vitro differentiation protocols and culture conditions described previously (Najm et al, 2011, Nature Methods). OPCs were expanded and frozen down in aliquots. OPCs were thawed into growth conditions for at least one passage before use in further assays.
EpiSC-derived OPCs were grown and expanded in poly-L-ornithine (PO) and laminin-coated flasks in N2B27 media (DMEM/F12 (Gibco), N2-MAX (R&D Systems), B-27 (ThermoFisher), and GlutaMax (Gibco)) supplemented with FGF2 ([…], R&D systems, 233-FB-025) and PDGF-AA ([…], R&D systems, 233-AA-050) before harvesting for experiments. The cells were seeded onto poly-L-ornithine or poly-D-lysine coated CellCarrier Ultra plates (PerkinElmer) coated with laminin (Sigma, L2020) at a density of 150,000/cm^2 in N2B27 media without growth factors. For dose-response testing, a 1000× compound stock in dimethyl sulphoxide (DMSO) was added to assay plates, resulting in 8-point dose curves with final concentrations between 1000 nM and 0.5 nM. Positive controls and DMSO vehicle controls were included in each assay plate. Cells were incubated under standard conditions (37° C., 5% CO2) for 3 days and fixed with 4% paraformaldehyde (PFA) in phosphate buffered saline (PBS) for 20 min. Fixed plates were washed with PBS, permeabilized with 0.1% Triton X-100, and blocked with 10% donkey serum (v/v) in PBS for 40 min. Then, cells were labelled with MBP antibodies (Abcam, ab7349; 1:200) for 2 h at room temperature, washed with PBS, and stained with Alexa Fluor conjugated secondary antibodies (1:500) for 45 min. Nuclei were visualized by DAPI staining (Sigma; 1 μg/ml), followed by further PBS washes.
Cells and cell culture plates were imaged on the Operetta High Content Imaging and Analysis system (PerkinElmer). Analysis (PerkinElmer Harmony and Columbus software) began by identifying intact nuclei stained by DAPI. The peri-nuclear region of each cell was then cross-referenced with the mature myelin protein (MBP) stain to identify oligodendrocyte nuclei, and from this the percentage of oligodendrocytes was calculated. EC50 values were calculated using The Levenberg-Marquardt algorithm to fit a Hill equation to dose-response data (0.5 nM to 1000 nM).

For assay [1], the system named is EBP (zymostenol accumulation in EpiSC-derived OPCs). As to the kind of experiment: GC/MS-based sterol profiling, zymostenol accumulation in OPCs. The class given is cell-based, mouse. Particulars: Mus musculus, 24 h, EpiSC-derived OPCs, 24 hr treatment, 8 doses from 0.15 nM to 333 nM; read-out: Zymostenol GCMS EC50. The gist of the method: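 EpiSC-derived OPCs (100,000/well) were treated 24 h in N2B27 without growth factors. Sterols were TMS-derivatized and analysed by GC/MS full-scan EI, quantified against cholesterol-d7. Zymostenol was normalized to the level after 24 h with 100 nM positive control reference.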

The target of assay [2] is human emopamil binding protein and human 7-dehydrocholesterol reductase co-expressing cells (hEBP-DHCR7 membrane) (Homo sapiens (Human), UniProt Q15125). Nature of the assay: Radioligand filter binding assay on hEBP-DHCR7 membrane. Particulars: [3H]-(S)-6-(2-Methyl-3-(6-(trifluoromethyl)pyridin-3-yl)propyl)-2-thia-6-azaspiro[3.4]octane 2,2-dioxide radioligand, HEK293 membrane co-expressing hEBP and hDHCR7. The procedure, abridged:
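HEK293 cells transiently co-expressing human EBP and DHCR7 supplied whole-cell membranes (10 μg/well), incubated 3 h at 22 °C with [3H]-labelled spiro-octane dioxide ligand (added at 25 nM) and compound (0.06-5000 nM final, 8 doses, n=2). Bound ligand was collected on PEI-treated GF/B filters and counted by scintillation. IC50 was Hill-fitted from % inhibition and reported as Ki.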

Like-named read-outs stand apart in the source and are kept apart here.

Chain of human emopamil binding protein and human 7-dehydrocholesterol reductase co-expressing cells (hEBP-DHCR7 membrane) (Q15125 whole entry): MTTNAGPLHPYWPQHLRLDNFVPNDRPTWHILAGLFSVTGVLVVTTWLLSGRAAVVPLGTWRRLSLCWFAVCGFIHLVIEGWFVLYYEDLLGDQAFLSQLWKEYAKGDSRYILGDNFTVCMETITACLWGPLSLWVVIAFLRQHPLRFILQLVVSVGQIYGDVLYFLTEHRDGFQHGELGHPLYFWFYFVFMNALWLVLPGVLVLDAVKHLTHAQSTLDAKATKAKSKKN

`O=S1(=O)CC2(CCN([C@H]3CCC[C@H](c4ccc(C(F)(F)F)nc4)C3)C2)C1` (single isomer, unassigned) [54D*]: the concentration giving a half-maximal response (EC50) with EpiSC-derived OPCs (Mus musculus, 72 h) was found to be 35 nM; in assay [1], 13 nM. In assay [2], this molecule yielded a Ki of 68 nM.
Turning to `CC(C)n1nc(C(F)(F)F)cc1[C@H]1CCC[C@@H](N2CCC3(CC2)CS(=O)(=O)C3)C1` (single isomer, unassigned) [78C*], the 50% effective concentration (EC50) came to 273 nM in the assay with EpiSC-derived OPCs (Mus musculus, 72 h) and 28 nM in assay [1]. Besides, in assay [2], the affinity corresponds to a Ki of 790 nM.
`O=S1(=O)CC2(CCN([C@H]3CC[C@H](c4ncc(C(F)(F)F)cc4F)CC3)C2)C1` [Compound 59, 6-((1r,4r)-4-(3-Fluoro-5-(trifluoromethyl)pyridin-2-yl)cyclohexyl)-2-thia-6-azaspiro[3.4]octane 2,2-dioxide]: the EC50 was found to be 82 nM in the assay with EpiSC-derived OPCs (Mus musculus, 72 h) and 13 nM in assay [1]. This molecule yielded an inhibition constant (Ki) in assay [2] of 72 nM.
As for `O=S1(=O)CC2(CCN([C@H]3CC[C@H](c4cc(C(F)(F)F)ncn4)CC3)C2)C1` [Compound 83, 6-((1r,4r)-4-(6-(Trifluoromethyl)pyrimidin-4-yl)cyclohexyl)-2-thia-6-azaspiro[3.4]octane 2,2-dioxide], the concentration for a half-maximal effect (EC50) with EpiSC-derived OPCs (Mus musculus, 72 h) was found to be 280 nM; in assay [1], 34 nM. The same molecule came in with a Ki in assay [2] of 120 nM.
Take `O=S1(=O)CC2(CCN([C@H]3CC[C@H](c4ccc(F)c(F)c4)CC3)C2)C1` [Compound 70A, 6-((1r,4r)-4-(3,4-difluorophenyl)cyclohexyl)-2-thia-6-azaspiro[3.4]octane 2,2-dioxide]: the 50% effective concentration (EC50) with EpiSC-derived OPCs (Mus musculus, 72 h) is 18 nM; in assay [1], 4 nM. Also, the Ki in assay [2] was determined as 6.5 nM.
`O=S1(=O)CC2(CCN(C3CCN(c4ncc(C(F)(F)F)cc4F)CC3)CC2)C1` [Compound 52, 7-(1-(3-Fluoro-5-(trifluoromethyl)pyridin-2-yl)piperidin-4-yl)-2-thia-7-azaspiro[3.5]nonane 2,2-dioxide]: the EC50 in the assay on EpiSC-derived OPCs (Mus musculus, 72 h) is 7.7 nM; in assay [1], 4.8 nM. The molecule further registered a Ki in assay [2] of 18 nM.
In the case of `O=S1(=O)CC2(CCCN([C@H]3CC[C@H](c4ccc(C(F)(F)F)nc4)CC3)C2)C1` [Compound 79, 6-((1r,4r)-4-(6-(Trifluoromethyl)pyridin-3-yl)cyclohexyl)-2-thia-6-azaspiro[3.5]nonane 2,2-dioxide], the concentration giving a half-maximal response (EC50) in the assay on EpiSC-derived OPCs (Mus musculus, 72 h) came out at 36 nM; in assay [1] it was 9.7 nM. In assay [2], this molecule gave an inhibition constant Ki of 22 nM.
The matching figures for `CC(C)n1nc(C(F)(F)F)cc1[C@@H]1CCC[C@H](N2CCC3(C2)CS(=O)(=O)C3)C1` (single isomer, unassigned) [61C*]: 53 nM, 7.5 nM and 31 nM.
Turning to `O=S1(=O)CC2(CCN([C@@H]3CCC[C@@H](c4ccc(C(F)(F)F)nc4)C3)CC2)C1` (single isomer, unassigned) [56D*], the EC50 was found to be 690 nM in the assay on EpiSC-derived OPCs (Mus musculus, 72 h) and 150 nM in assay [1]. Affinity in assay [2] was put at a Ki of 65 nM.
`O=S1(=O)CC2(CCN(C3CCN(c4ncc(C(F)(F)F)cc4C4CC4)CC3)C2)C1` [Compound 44, 6-(1-(3-Cyclopropyl-5-(trifluoromethyl)pyridin-2-yl)piperidin-4-yl)-2-thia-6-azaspiro[3.4]octane 2,2-dioxide]: the EC50 was found to be 14 nM in the assay with EpiSC-derived OPCs (Mus musculus, 72 h) and 4 nM in assay [1]. Besides, the Ki in assay [2] amounted to 9 nM.
Consider `O=S1(=O)CC2(CCN([C@H]3CC[C@@H](c4ccc(C(F)(F)F)cc4)C3)C2)C1` [Compound 1A, 6-((1S,3R)-3-(4-(trifluoromethyl)phenyl)cyclopentyl)-2-thia-6-azaspiro[3.4]octane 2,2-dioxide], for which the 50% effective concentration (EC50) in the assay with EpiSC-derived OPCs (Mus musculus, 72 h) was 17 nM; in assay [1], 4.9 nM. Moreover, the affinity in assay [2], expressed as Ki, was 14.8 nM.
As to `CC(C)n1nc(-c2ccc(C(F)(F)F)cc2)nc1[C@H]1CCC(N2CCC3(CC2)CS(=O)(=O)C3)C1` (stereo in doubt) [Compound 58A, 7-((1R,3S)-3-(1-Isopropyl-3-(4-(trifluoromethyl)phenyl)-1H-1,2,4-triazol-5-yl)cyclopentyl)-2-thia-7-azaspiro[3.5]nonane 2,2-dioxide], the half-maximal effective concentration (EC50) was found to be 7.3 nM with EpiSC-derived OPCs (Mus musculus, 72 h) and 4.4 nM in assay [1]. Besides, the Ki in assay [2] stood at 22 nM.
For `O=S1(=O)CC2(CCN(C3CC[C@H](c4nc(-c5cccc(C(F)(F)F)n5)nn4C4CC4)C3)CC2)C1` (stereo in doubt) [42C*, 7-((1S,3S)-3-(1-Cyclopropyl-3-(6-(trifluoromethyl)pyridin-2-yl)-1H-1,2,4-triazol-5-yl)cyclopentyl)-2-thia-7-azaspiro[3.5]nonane 2,2-dioxide], the EC50 in the assay with EpiSC-derived OPCs (Mus musculus, 72 h) was determined as 190 nM; in assay [1], 88 nM. In addition, the affinity in assay [2] corresponds to a Ki of 1180 nM.
As for `O=S1(=O)CC2(CCN([C@@H]3CCC[C@H](c4ccc(C(F)(F)F)nc4)C3)CC2)C1` (single isomer, unassigned) [56A*], the EC50 worked out at 270 nM in the assay on EpiSC-derived OPCs (Mus musculus, 72 h) and 30 nM in assay [1]. In assay [2], this molecule registered an inhibition constant (Ki) of 61 nM.
As for `O=S1(=O)CC2(CCN([C@@H]3CC[C@@H](c4ccc(C(F)(F)F)nc4)C3)CC2)C1` (single isomer, unassigned) [57A*], the results for the half-maximal effective concentration (EC50) (in the assay with EpiSC-derived OPCs; in assay [1]) were 65 nM and 24 nM, respectively. In assay [2], this molecule gave a Ki of 160 nM.
With `Cc1nc(C(F)(F)F)ccc1[C@H]1CC[C@H](N2CCC3(C2)CS(=O)(=O)C3)CC1` [Compound 51A, 6-((1r,4r)-4-(2-Methyl-6-(trifluoromethyl)pyridin-3-yl)cyclohexyl)-2-thia-6-azaspiro[3.4]octane 2,2-dioxide], the EC50 with EpiSC-derived OPCs (Mus musculus, 72 h) was 18 nM; in assay [1] it was 8.3 nM. The Ki in assay [2] came to 26 nM.
`CC(C)n1nc(-c2cccc(C(F)(F)F)n2)cc1[C@@H]1CC[C@@H](N2CCC3(CC2)CS(=O)(=O)C3)C1` (single isomer, unassigned) [46A*]: the concentration for a half-maximal effect (EC50) with EpiSC-derived OPCs (Mus musculus, 72 h) turned out to be 2.5 nM; in assay [1], 1.3 nM. The molecule also had an inhibitory constant (Ki) in assay [2] of 31 nM.
Taken in the same sequence, the figures for `CC(C)(C)n1nc(C(F)(F)F)cc1[C@H]1CC[C@H](N2CCC3(C2)CS(=O)(=O)C3)CC1` [Compound 73, 6-((1r,4r)-4-(1-(tert-Butyl)-3-(trifluoromethyl)-1H-pyrazol-5-yl)cyclohexyl)-2-thia-6-azaspiro[3.4]octane 2,2-dioxide] were 110 nM, 33 nM and 21 nM.
The matching figures for `O=S1(=O)CC2(CCN([C@H]3CCCN(c4ccc(C(F)(F)F)cc4)C3)CC2)C1` (single isomer, unassigned) [55B*]: 330 nM, 25 nM and 14 nM.
As for `CC(C)n1nc(-c2ccc(C(F)(F)F)cc2)nc1[C@H]1CCC(N2CCC3(CC2)CS(=O)(=O)C3)C1` (stereo in doubt) [Compound 58B, 7-((1S,3S)-3-(1-isopropyl-3-(4-(trifluoromethyl)phenyl)-1H-1,2,4-triazol-5-yl)cyclopentyl)-2-thia-7-azaspiro[3.5]nonane 2,2-dioxide], the EC50 is 3.4 nM in the assay with EpiSC-derived OPCs (Mus musculus, 72 h) and 2.3 nM in assay [1]. The molecule further registered an inhibition constant (Ki) in assay [2] of 21 nM.
Take `O=S1(=O)CC2(CCN([C@H]3CC[C@H](c4ccc(C(F)(F)F)nc4)C3)CC2)C1` (single isomer, unassigned) [57D*]: the EC50 in the assay with EpiSC-derived OPCs (Mus musculus, 72 h) was found to be 130 nM; in assay [1], 18 nM. The Ki in assay [2] turned out to be 150 nM.
`O=S1(=O)CC2(CCN([C@H]3CC[C@@H](c4nc(-c5cccc(C(F)(F)F)n5)nn4C4CC4)C3)CC2)C1` (single isomer, unassigned) [42A*]: the concentration giving a half-maximal response (EC50) in the assay on EpiSC-derived OPCs (Mus musculus, 72 h) amounted to 93 nM; in assay [1], 43 nM. The molecule further showed a Ki in assay [2] of 570 nM.
